Reference: US20140154180A1, “Pharmacophores for Amyloid Fibers Involved in Alzheimer's Disease” (The Regents of the University of California, priority 2011, published 2014)
“Also recorded” adds a separate entry of the source.

Tests used:
[1] = test system: Aβ toxicity to PC12 cells; test: MTT cell viability assay, rescue from Abeta toxicity, PC12 cells; assay type: cell-based; settings: Table 7; scaled cell survival rate, buffer-treated cell 100%, Abeta-treated cell 0%; Abeta 0.5 μM; 12 h incubation
Source text: (§1) We tested candidate compounds by the MTT-based cell proliferation/viability assay, as described on the ATCC web site. Briefly, the ATCC MTT Cell Proliferation Assay quantitates the reduction of the yellow tetrazolium salt (MTT) in response to an external factor, such as treatment with a compound of the present invention, as a measure of a cell population's response to the external factor. The assay measures the cell proliferation rate and conversely, when metabolic events lead to apoptosis or necrosis, the reduction in cell viability. In our tests, Hela and PC12 cell lines were used to assess the toxic effect of Abeta protein. Abeta at 0.5 μM was a positive control. The small molecule inhibitors were added to samples with different concentrations (such as 2.5 μM). After 12 h incubation at room temperature, the absorbance of reduced MIT was measured at 570 nm. Each of the experiments was repeated 3 times with 4 replicates per sample per concentration. Our MTT cell viability assay quantified the percentage of survival cells upon the treatment of the mixture of Abeta and compound inhibitors. The rescuing percentage of each compound was calculated by normalizing the survival percentage using the buffer-treated cell as 100% viability and Abeta-treated cell as 0% viability.

[2] = test system: Aβ toxicity to Hela cells; test: MTT cell viability assay, rescue from Abeta toxicity, Hela cells; assay type: cell-based; settings: Table 7; scaled cell survival rate, buffer-treated cell 100%, Abeta-treated cell 0%; Abeta 0.5 μM; 12 h incubation
Source text: as §1

Aβ fibrillation = Aβ fibrillation (Homo sapiens, UniProt P05067); test: Electron microscopy (EM) of Aβ with BAF compounds; settings: Aβ with compound right before adding to the cell medium
Chain of Aβ fibrillation (P05067 672-713): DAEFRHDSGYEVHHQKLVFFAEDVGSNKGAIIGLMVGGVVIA

[3] = biological target: T1, KLVFFA (SEQ ID NO: 1) fibers (Homo sapiens, UniProt P05067); test: 1H NMR titration with KLVFFA fibers; assay type: binding; settings: compound 100 μM, increasing KLVFFA fiber concentrations, 283 K; read-out: apparent dissociation constant (Kd)
T1 construct: host or cells: chemically synthesized peptide
Experimental: As a validation of our computational approach, we used nuclear magnetic resonance (NMR) to characterize the interactions between our BAF compounds and KLVFFA (SEQ ID NO: 1) and Aβ fibers.
NMR samples contained 550 μL of designed compounds were added from 1 mM stocks in H2O to a final concentration of 100 μM. Fibrillar KLVFFA (SEQ ID NO: 1) and Abeta were added at the indicated concentrations. 500 MHz ^1H NMR spectra were collected on a Bruker DRX500 at 283 K. H2O resonance was suppressed through presaturation. Spectra were processed with XWINNMR 3.6.

[4] = test system: Aβ toxicity to Hela and PC12 cell lines; test: MTT cell viability assay, Abeta toxicity, cell line not given; assay type: cell-based; settings: FIG. 17B
Source text: as §1

[5] = biological target: T2, VQIVYK (SEQ ID NO: 2) segment from the tau protein (Homo sapiens, UniProt P10636); test: LC-MSMS analysis of co-crystals, molar ratio, VQIVYK
T2 construct: host or cells: chemically synthesized peptide
Source text: Liquid chromatography tandem mass spectrometry (LC-MSMS) was used to measure the molar ratios of the peptide segments and the small molecules within the crystals. Authentic samples of the peptides and each of the small molecules were used to prepare standard response curves. Crystals from each of the four mixtures of peptides and small compounds were individually picked (using a sharpened glass capillary) and re-dissolved in 5%-10% acetonitrile. The samples were divided into two aliquots, one for the peptide analyses and the other for the small molecule analyses, and the amount of each component in the samples was interpolated using the standard curves.
Peptide standards (dry powder of VQIVYK (SEQ ID NO: 2) and KLVFFA (SEQ ID NO: 1)) were dissolved in water and prepared in concentrations ranging from 0.05 μM to 0.01 mM in 0.1% TFA. […] Data were collected in the positive ion multiple reaction monitoring (MRM) mode in which the intensity of specific parent→fragment ion transitions were recorded (VQIVYK (SEQ ID NO: 2), m/z 749.5→341.3, 749.5→409.4, 749.5→440.3, 749.5→522.5; KLVFFA (SEQ ID NO: 1), 724.4→84, 724.4→488.3, 362.7→84, 362.7→120.1). […]

| SMILES | Rescuing Percentage PC12 [1] | Rescuing Percentage Hela [2] | inhibition of Aβ fibrillation (EM) (Aβ fibrillation) | Kd [3] | dose dependence of reduction of Aβ cytotoxicity [4] | VQIVYK segments for each small molecule [5] |
| --- | --- | --- | --- | --- | --- | --- |
| O=C1OC2(c3ccccc31)c1cc(Br)c(O)c(Br)c1Oc1c2cc(Br)c(O)c1Br [BAF1] | 44.3% | 41.3% | do not inhibit Aβ fibrillation | ~12 µM |  |  |
| CCCN1CCc2cc(O)cc3c2C1Cc1ccc(O)c(O)c1-3 (centres unmarked) [BAF31] | 92.6% | 83.0% | do not inhibit Aβ fibrillation |  | reduce Aβ cytotoxicity in a dose dependent manner; also recorded: reduce Aβ cyto-toxicity in a dose dependent manner |  |
| COc1cc(/C=C/C(=O)CC(=O)/C=C/c2ccc(O)c(OC)c2)ccc1O [curcumin, Curcumin] |  |  |  |  |  | ~100 |
| O=S(=O)(O)c1cc(S(=O)(=O)O)c2c(/N=N/c3ccccc3)c(O)ccc2c1 [Orange-G, reference compound] |  |  |  | ~43 µM |  |  |
| CC(=C(C#N)C#N)c1ccc2cc(N(C)C)ccc2c1 [DDNP, 1,1-Dicyano-2-[6-(dimethylamino)naphthalen-2-yl]propene] |  |  |  |  |  | ~400 |
| O=c1c(O)c(-c2cc(O)c(O)c(O)c2)oc2cc(O)cc(O)c12 [BAF26] | 85.5% | 51.4% |  |  |  |  |
| Cc1ccc(O)c(N=Nc2c(O)cc(S(=O)(=O)O)c3ccccc23)c1 [BAF8] | 25.1% | 27.1% | do not inhibit Aβ fibrillation | ~24 µM |  |  |
